From patent publication US7335814B2, “Transgenic cells expressing glucosyltransferase nucleic acids” (The University of York, priority 2000, dated 2008)

How the values were obtained:
Type in all cases: biochemical
recombinant GTase A43 = molecular target: T1, recombinant GTase A43 (Arabidopsis thaliana, UniProt O23402); assay: Specific activity of recombinant GTase producing glucose ester against lignin precursors (HPLC); conditions: 0.5 ml of potential substrates, 5 mM UDPG, 0.2 μg GTase, 200 μl, 20° C., 30 min
T1 construct: made in house; host or cells: E. coli

recombinant GTase A407 = molecular target: T2, recombinant GTase A407 (Arabidopsis thaliana, UniProt O81498); assay: Specific activity of recombinant GTase producing O-glucosides against lignin precursors (HPLC); conditions: 30° C.; ND = not detected
T2 construct: made in house; host or cells: E. coli
T2 sequence (O81498 1-481): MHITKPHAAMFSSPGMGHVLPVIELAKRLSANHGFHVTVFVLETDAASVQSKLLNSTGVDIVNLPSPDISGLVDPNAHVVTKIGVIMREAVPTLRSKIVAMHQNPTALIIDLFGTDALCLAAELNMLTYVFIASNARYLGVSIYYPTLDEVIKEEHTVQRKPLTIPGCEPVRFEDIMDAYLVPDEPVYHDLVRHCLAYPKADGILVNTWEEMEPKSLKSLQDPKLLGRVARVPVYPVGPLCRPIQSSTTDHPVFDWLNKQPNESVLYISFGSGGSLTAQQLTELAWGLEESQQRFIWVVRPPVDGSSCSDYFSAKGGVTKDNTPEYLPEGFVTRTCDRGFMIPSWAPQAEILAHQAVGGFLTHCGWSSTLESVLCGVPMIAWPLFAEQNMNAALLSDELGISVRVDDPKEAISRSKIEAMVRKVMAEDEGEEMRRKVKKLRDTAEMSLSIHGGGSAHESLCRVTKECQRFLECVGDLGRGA

recombinant GTase A062 = molecular target: T3, recombinant GTase A062 (Arabidopsis thaliana, UniProt Q9LR44); assay: Specific activity of recombinant GTase producing glucose ester against lignin precursors (HPLC); conditions: 0.5 ml of potential substrates, 5 mM UDPG, 0.2 μg GTase, 200 μl, 20° C., 30 min
T3 construct: made in house; host or cells: E. coli
T3 sequence (Q9LR44 1-469): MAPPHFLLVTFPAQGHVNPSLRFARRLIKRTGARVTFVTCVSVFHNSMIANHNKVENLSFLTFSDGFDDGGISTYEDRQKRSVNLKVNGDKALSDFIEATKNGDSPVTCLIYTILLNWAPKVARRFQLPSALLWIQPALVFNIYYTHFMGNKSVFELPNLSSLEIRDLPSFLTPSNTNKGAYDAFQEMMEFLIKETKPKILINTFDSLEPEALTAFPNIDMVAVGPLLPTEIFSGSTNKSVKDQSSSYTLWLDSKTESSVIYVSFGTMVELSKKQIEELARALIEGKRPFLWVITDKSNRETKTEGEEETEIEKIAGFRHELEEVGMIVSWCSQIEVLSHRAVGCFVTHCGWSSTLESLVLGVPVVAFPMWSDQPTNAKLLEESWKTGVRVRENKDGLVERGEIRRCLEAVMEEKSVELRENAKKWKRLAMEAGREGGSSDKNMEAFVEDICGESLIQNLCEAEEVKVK

UGT71C1 = molecular target: T4, UGT71C1 (Arabidopsis thaliana, UniProt O82381); assay: UGT71C1 glucosyltransferase specific activity towards phenolic compounds (reverse-phase HPLC); conditions: 1 mM phenolic compound, 5 mM UDP-glucose, 50 mM TRIS-HCl pH 7.0, 30° C., 30 min; mean of three replicates ± standard deviation
T4 construct: GST (N); made in house; host or cells: E. coli
T4 sequence (O82381 1-481): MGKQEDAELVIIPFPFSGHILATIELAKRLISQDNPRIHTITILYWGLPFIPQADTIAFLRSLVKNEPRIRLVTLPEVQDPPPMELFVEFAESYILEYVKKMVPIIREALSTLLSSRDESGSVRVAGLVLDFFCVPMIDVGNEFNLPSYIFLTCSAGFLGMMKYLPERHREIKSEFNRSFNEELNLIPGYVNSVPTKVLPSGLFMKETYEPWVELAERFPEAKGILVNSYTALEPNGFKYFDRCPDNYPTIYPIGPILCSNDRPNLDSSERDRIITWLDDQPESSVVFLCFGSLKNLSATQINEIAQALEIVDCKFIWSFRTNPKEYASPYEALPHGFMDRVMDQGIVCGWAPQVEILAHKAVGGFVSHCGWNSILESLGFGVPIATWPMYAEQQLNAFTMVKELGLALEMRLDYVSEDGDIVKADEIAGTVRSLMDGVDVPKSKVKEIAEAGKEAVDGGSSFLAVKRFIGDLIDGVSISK

recombinant GTase A961 = molecular target: T5, recombinant GTase A961 (Arabidopsis thaliana, UniProt O82381); assay: Specific activity of recombinant GTase producing O-glucosides against lignin precursors (HPLC); conditions: 30° C.; ND = not detected
T5 construct: made in house; host or cells: E. coli
T5 sequence (O82381 1-481): T4 sequence (O82381 1-481)

recombinant GTase A320 = molecular target: T6, recombinant GTase A320 (Arabidopsis thaliana, UniProt Q9LVF0); assay: Specific activity of recombinant GTase producing glucose ester against lignin precursors (HPLC); conditions: 5 mM UDPG, 0.2 μg GTase, 200 μl, 20° C., 30 min
T6 construct: made in house; host or cells: E. coli
T6 sequence (Q9LVF0 1-496): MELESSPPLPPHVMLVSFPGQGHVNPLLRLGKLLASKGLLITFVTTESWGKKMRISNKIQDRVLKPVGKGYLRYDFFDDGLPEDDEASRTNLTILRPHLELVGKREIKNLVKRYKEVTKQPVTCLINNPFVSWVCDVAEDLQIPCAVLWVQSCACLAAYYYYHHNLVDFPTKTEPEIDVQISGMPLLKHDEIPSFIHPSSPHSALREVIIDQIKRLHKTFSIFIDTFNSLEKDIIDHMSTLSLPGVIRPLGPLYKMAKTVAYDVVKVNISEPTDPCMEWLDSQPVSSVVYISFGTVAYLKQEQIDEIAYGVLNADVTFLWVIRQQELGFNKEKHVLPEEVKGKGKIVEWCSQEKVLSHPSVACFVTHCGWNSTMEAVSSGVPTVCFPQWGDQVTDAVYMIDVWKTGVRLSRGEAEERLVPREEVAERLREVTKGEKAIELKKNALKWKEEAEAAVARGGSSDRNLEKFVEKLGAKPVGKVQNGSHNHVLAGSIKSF

recombinant GTase A119 = molecular target: T7, recombinant GTase A119 (Arabidopsis thaliana, UniProt Q9LVR1); assay: Specific activity of recombinant GTase producing O-glucosides against lignin precursors (HPLC); conditions: 30° C.; ND = not detected
T7 construct: made in house; host or cells: E. coli
T7 sequence (Q9LVR1 1-481): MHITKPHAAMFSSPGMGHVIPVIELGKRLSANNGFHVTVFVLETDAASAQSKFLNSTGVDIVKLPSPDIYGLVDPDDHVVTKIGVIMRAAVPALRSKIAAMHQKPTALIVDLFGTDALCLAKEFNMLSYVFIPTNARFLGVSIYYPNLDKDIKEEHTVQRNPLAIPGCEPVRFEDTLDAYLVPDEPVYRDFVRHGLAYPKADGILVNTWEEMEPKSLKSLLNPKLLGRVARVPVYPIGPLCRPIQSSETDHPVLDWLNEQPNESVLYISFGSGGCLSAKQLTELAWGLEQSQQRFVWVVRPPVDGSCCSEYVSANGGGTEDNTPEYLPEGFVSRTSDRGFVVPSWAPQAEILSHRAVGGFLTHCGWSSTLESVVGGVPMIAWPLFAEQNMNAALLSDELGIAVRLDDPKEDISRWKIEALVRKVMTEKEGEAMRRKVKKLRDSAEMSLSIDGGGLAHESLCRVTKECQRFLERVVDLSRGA

recombinant GTase A233 = molecular target: T8, recombinant GTase A233 (Arabidopsis thaliana, UniProt Q8W491); assay: as above; conditions: 30° C.; ND = not detected
T8 construct: made in house; host or cells: E. coli

recombinant GTase A911 = molecular target: T9, recombinant GTase A911 (Arabidopsis thaliana, UniProt O22182); assay: Specific activity of recombinant GTase producing glucose ester against lignin precursors (HPLC); parameters: made in house; host or cells: E. coli; conditions: 0.5 ml of potential substrates, 5 mM UDPG, 0.2 μg GTase, 200 μl, 20° C., 30 min
T9 sequence (O22182 1-456): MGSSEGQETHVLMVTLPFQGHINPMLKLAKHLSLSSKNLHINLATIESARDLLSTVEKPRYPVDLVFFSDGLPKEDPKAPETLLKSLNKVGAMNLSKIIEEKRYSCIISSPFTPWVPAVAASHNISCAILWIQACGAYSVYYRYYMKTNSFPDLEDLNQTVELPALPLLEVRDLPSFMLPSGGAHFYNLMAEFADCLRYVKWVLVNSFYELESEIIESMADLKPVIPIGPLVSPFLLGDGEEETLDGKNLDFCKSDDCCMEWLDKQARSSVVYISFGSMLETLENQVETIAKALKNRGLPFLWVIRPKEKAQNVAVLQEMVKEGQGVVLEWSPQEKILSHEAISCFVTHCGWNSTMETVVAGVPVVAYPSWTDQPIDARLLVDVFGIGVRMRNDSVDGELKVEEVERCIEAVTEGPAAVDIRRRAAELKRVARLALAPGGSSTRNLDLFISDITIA

O=C(O)C=Cc1ccc(O)c(O)c1 [Caffeic acid, 3,4-dihydroxycinnamic acid]
Specific activity of A43 (substrate converted to glucose ester) (recombinant GTase A43): 0.01 nkat/mg | Specific activity of A407 (substrate converted to 4-O-glucoside) (recombinant GTase A407): 0.07 nkat/mg | Specific activity of A062 (substrate converted to glucose ester) (recombinant GTase A062): 0.26 nkat/mg | Specific activity (UGT71C1) (UGT71C1): 2.9 ± 0.8 nkat/mg | Specific activity of A961 (substrate converted to 4-O-glucoside) (recombinant GTase A961): 0.07 nkat/mg | Specific activity of A320 (substrate converted to glucose ester) (recombinant GTase A320): 0.05 nkat/mg | Specific activity of A119 (substrate converted to 4-O-glucoside) (recombinant GTase A119): 0.13 nkat/mg | Specific activity of A233 (substrate converted to 4-O-glucoside) (recombinant GTase A233): 0.48 nkat/mg | Specific activity of A911 (substrate converted to glucose ester) (recombinant GTase A911): 0.77 nkat/mg
